Experimental data: article PMC7436000, “The Spectrum of Design Solutions for Improving the Activity-Selectivity Product of Peptide Antibiotics against Multidrug-Resistant Bacteria and Prostate Cancer PC-3 Cells” (Molecules, 2020)
In brackets after ≈: the same amount, converted by molar mass. Read-outs that look alike come from different tables or passages of the source. Peptide text beside a SMILES is read from it.

Experiments:
E. coli clin. isolate = format: cell-based, Escherichia coli
Description: (§1) The American Type Culture Collection (ATCC, Rockville, MD, USA) strains and Escherichia coli MG1655 were used as standard bacterial strains. Gram-negative ATCC strains consisted of Escherichia coli (ATCC 25922), Pseudomonas aeruginosa (ATCC 27853), Acinetobacter baumannii (ATCC 19606), and Klebsiella pneumoniae (ATCC 13883). The only Gram-positive standard strain chosen for testing was Staphylococcus aureus (ATCC 29213). Clinical isolates with confirmed multidrug-resistance phenotype were obtained from different wards of the University Hospital Center, Split, Croatia. We described their origin, antibiograms, and resistance phenotype previously. In the same paper, we described the procedure for antimicrobial susceptibility testing on planktonic cells, using the microdilution method in 96-well microtiter plates.
(§2) Briefly, cells were grown on agar plates and a single colony was sampled to generate a liquid culture (LC) grown overnight at 37 °C. The culture was sampled, resuspended in fresh medium, and allowed to grow at 37 °C, until reaching the mid-exponential phase. Lysogeny broth (LB) was used in the case of the E. coli MG1655 cells. Mueller Hinton (MH) medium was used for all other bacterial strains. Serial 2-fold dilutions of the peptide (64 μM to 0.0625 μM) were prepared from peptide stock solution in PBS, and added to a final load of 5 × 10^5 CFU/mL in 100 μL total volume of medium per well in a 96-well plate (Brand 781660). Bacterial cultures were incubated with peptides for 18 h to 24 h at 37 °C. The minimum inhibitory concentration (MIC) was defined as the lowest concentration of the peptide, at which no visible bacterial growth was observed. The MIC for each of the tested peptides was determined in at least three individual assays under the same laboratory conditions. […] At the end of the incubation period for MIC or MBC, the determination of the OD600 was analyzed.

P. aerug. clin. isolate = format: cell-based, Pseudomonas aeruginosa
Description: as §1, §2

K. pneum. clin. isolate = format: cell-based, Klebsiella pneumoniae
Description: as §1, §2

[1] = tested on: Acinetobacter baumannii (ATCC 19606); format: cell-based
Description: as §1, §2

[2] = tested on: Escherichia coli (ATCC 25922); format: cell-based
Description: as §1, §2

Escherichia coli MG1655 = format: cell-based
Description: as §1, §2

[3] = tested on: Klebsiella pneumoniae (ATCC 13883); format: cell-based
Description: as §1, §2

[4] = tested on: Pseudomonas aeruginosa (ATCC 27853); format: cell-based
Description: as §1, §2

[5] = tested on: Staphylococcus aureus (ATCC 29213); format: cell-based
Description: as §1, §2

A. baum. clin. isolate = format: cell-based, Acinetobacter baumannii
Description: as §1, §2

S. aureus clin. isolate = format: cell-based, Staphylococcus aureus
Description: as §1, §2

human erythrocytes = assay: Hemolysis of human erythrocytes; format: cell-based; conditions: for HC10: concentration causing 10% hemolysis, 0.2% Triton = 100%; for HC10 / HC20 / HC50: 0.5% RBC in PBS, 1 h, 37 °C, absorbance 450 nm, triplicate; for HC20: concentration causing 20% hemolysis; for HC50: concentration causing 50% hemolysis
Experimental: Fresh blood was obtained from a healthy donor. Blood was stored in a tube containing EDTA at 4 °C and used within 24 h. Before use, 1 mL of blood was centrifuged (400× g, 10 min), and the supernatant was discarded. Moreover, 500 μL cold PBS with EDTA (1 mM) was added, mixed and centrifuged. The supernatant was discarded. Furthermore, 500 μL of cold PBS with EDTA (1 mM) was added, from which a dilution of 1% blood was made. Peptides were prepared in PBS at a 2 × concentration in 100 µL. […] The suspension was incubated at 37 °C for 1 h and centrifuged at 10,000× g for 5 min. […] After centrifugation, the supernatant was added to a 96-well microtiter plate (150–180 μL), and the absorbance was measured at 450 nm, using EnSight Multimode Plate Reader (PerkinElmer, Inc.). Each measurement was done in triplicate. […] We opted to also include the extrapolated HC50 in our results, to permit comparisons with older toxicity results. However, the HC20 measurements were used for ranking the peptides according to their selectivity and overall performance (Figure 1 and Figure 2 and Table 2).

[6] = tested on: human primary dermal fibroblasts; format: cell-based
Experimental: (§3) Prostate cancer cells were donated by the University of Split, School of Medicine. Cells were cultured in RMPI-1640 medium, supplemented with 10% FBS, 1% Penicillin-Streptomycin, and 1% L-Glutamine. Human dermal fibroblasts were purchased from Biopredic (France) and cultured in DMEM medium, supplemented with 10% FBS and 1% Penicillin-Streptomycin. All cell lines were maintained in a humidified incubator with 5% CO2 at 37 °C. Cells were detached using the trypsin-EDTA solution and sub-cultured (7000 cells/well) in a 96-well plate overnight. Peptide stock solutions were prepared in PBS, and cancer cells were treated with 2-fold serial dilutions for 24 h at 37 °C, with 5% CO2. The toxicity of 6 selected peptides was assessed by a standard MTT assay. Treated cells were incubated with MTT working solution (0.5 mg/mL Thiazolyl Blue Tetrazolium Bromide) for 4 h at 37 °C with 5% CO2. Precipitated formazan was dissolved in 200 µL DMSO and absorbance was measured at 595 nm with EnSight Multimode Plate Reader (PerkinElmer, Inc.)

[7] = tested on: PC-3 prostate cancer cell line; format: cell-based, human
Experimental: as §3

[8] = multidrug-resistant clinical isolate, broth microdilution, MH medium, 18-24 h, 37 °C
[9] = broth microdilution, MH medium, 5 × 10^5 CFU/mL, 18-24 h, 37 °C

SMILES | HC10 (human erythrocytes) | HC20 (human erythrocytes) | HC50 (human erythrocytes) | MIC (E. coli clin. isolate) (E. coli clin. isolate; clin. isolate) | MIC (P. aerug. clin. isolate) (P. aerug. clin. isolate) | MIC (K. pneum. clin. isolate) (K. pneum. clin. isolate) | MIC (A. baum. ATCC 19606) ([1]; ATCC 19606) | MIC (E. coli ATCC 25922) ([2]; ATCC 25922) | MIC (E. coli MG1655) (Escherichia coli MG1655; MG1655) | MIC (K. pneum. ATCC 13883) ([3]; ATCC 13883) | MIC (P. aerug. ATCC 27853) ([4]; ATCC 27853) | MIC (S. aureus ATCC 29213) ([5]; ATCC 29213) | MIC (A. baum. clin. isolate) (A. baum. clin. isolate) | MIC (S. aureus clin. isolate) (S. aureus clin. isolate; clin. isolate) | IC50 ([6]; 24 h) | (TI/ IC50C) vs. MP1 ([7]; 24 h) | IC50 ([7]; 24 h) | TI (HC20/IC20C) ([7]; 24 h) | TI (IC50F/IC50C) ([7]; 24 h) | TI/ IC50C ([7]; 24 h) | further results
CC[C@H](C)[C@H](NC(=O)[C@H](CCCCN)NC(=O)[C@H](CCCCN)NC(=O)CNC(=O)[C@@H](NC(=O)[C@@H](N)CCCCN)[C@@H](C)CC)C(=O)N[C@@H](CC(C)C)C(=O)N[C@@H](CCCCN)C(=O)N[C@@H](C)C(=O)N[C@@H](CC(C)C)C(=O)N[C@@H](CCCCN)C(=O)NCC(=O)N[C@@H](C)C(=O)N[C@@H](CC(C)C)C(=O)N[C@@H](CCCCN)C(=O)N[C@@H](CCC(=O)O)C(=O)N[C@@H](CC(C)C)C(=O)N[C@@H](C)C(N)=O [MAPA] (H-KIGKKILKALKGALKELA-NH2) | 1.7 µM | 3 µM | 20 µM | – | – | – | – | – | – | – | – | – | – | – | – | – | – | – | – | – | MIC (E. coli clin. isolate) (E. coli clin. isolate; multidrug-resistant clinical isolate, broth microdilution, MH medium, 5 × 10^5 CFU/mL, 18-24 h, 37 °C): 8 to 16 µM; MIC (P. aerug. clin. isolate) (P. aerug. clin. isolate; [8]): 32 µM (≈ 61.5 µg/mL); MIC (K. pneum. clin. isolate) (K. pneum. clin. isolate; [8]): 8 µM (≈ 15.4 µg/mL); MIC (A. baum. ATCC 19606) [1, 9]: 1 to 2 µM; MIC (E. coli ATCC 25922) ([2]; broth microdilution, MH medium, 5 × 10^5 CFU/mL, 18-24 h, 37 °C, at least three assays): 1 to 2 µM; MIC (E. coli MG1655) (Escherichia coli MG1655; broth microdilution, LB medium, 5 × 10^5 CFU/mL, 18-24 h, 37 °C, at least three assays): 4 µM (≈ 7.69 µg/mL); MIC (K. pneum. ATCC 13883) [3, 9]: 8 µM (≈ 15.4 µg/mL); MIC (P. aerug. ATCC 27853) [4, 9]: 32 to 64 µM; MIC (S. aureus ATCC 29213) [5, 9]: 0.5 µM (≈ 0.961 µg/mL); PEa(20) = SI/MIC(aureus) ([5]; overall performance, product of SI (20) and 1/MIC, S. aureus ATCC 29213): 12 µM⁻¹; MIC (A. baum. clin. isolate) (A. baum. clin. isolate; [8]): 4 µM (≈ 7.69 µg/mL); MIC (S. aureus clin. isolate) (S. aureus clin. isolate; [8]): 8 µM (≈ 15.4 µg/mL); IC50 ([6]; MTT assay, 7000 cells/well, 24 h treatment, 37 °C, 5% CO2, absorbance 595 nm, read-out: IC50F (Fibroblasts)): 25 µM; IC50 ([7]; MTT assay, 7000 cells/well, 24 h treatment, 37 °C, 5% CO2, absorbance 595 nm, read-out: IC50C (PC-3)): 8 µM; TI (HC20/IC20C) ([7]; human erythrocytes vs PC-3): 1; TI/ IC50C ([7]; performance, product of TI and anticancer activity (1/IC50C)): 0.39; (TI/ IC50C) vs. MP1 ([7]; relative performance with respect to MP1 control peptide): 9.3; TI (IC50F/IC50C) ([7]; therapeutic index, fibroblasts vs PC-3): 3.1
CC[C@H](C)[C@H](NC(=O)[C@H](CCCCN)NC(=O)[C@H](CC(C)C)NC(=O)[C@H](C)NC(=O)[C@H](CCCCN)NC(=O)[C@H](CC(C)C)NC(=O)[C@H](C)NC(=O)[C@@H](NC(=O)[C@H](CCCCN)NC(=O)[C@H](C)NC(=O)[C@@H](NC(=O)[C@@H](N)CCCCN)[C@@H](C)CC)C(C)C)C(=O)N[C@@H](C)C(=O)N[C@@H](CCCCN)C(=O)N[C@H](C(=O)N[C@@H](C)C(=O)N[C@@H](CC(C)C)C(=O)N[C@@H](CCCCN)C(=O)N[C@@H](C)C(=O)N[C@@H](CC(C)C)C(N)=O)C(C)C [PG2] (H-KIAKVALKALKIAKVALKAL-NH2) | 3 µM | 14 µM | 18 µM | 6 µM (≈ 12.5 µg/mL) | 6 µM (≈ 12.5 µg/mL) | 12 µM (≈ 25.1 µg/mL) | 1.5 µM (≈ 3.13 µg/mL) | 1.5 µM (≈ 3.13 µg/mL) | 16 µM (≈ 33.4 µg/mL) | 3 µM (≈ 6.27 µg/mL) | 6 µM (≈ 12.5 µg/mL) | 0.75 µM (≈ 1.57 µg/mL) | 1.5 to 3 µM | 1.5 µM (≈ 3.13 µg/mL) | 10 µM | 6.8 | 6 µM | 6 | 1.7 | 0.28 | –
CC[C@H](C)[C@H](NC(=O)[C@H](CCCNC(=N)N)NC(=O)[C@H](C)NC(=O)[C@H](Cc1ccc(O)cc1)NC(=O)[C@H](CCCNC(=N)N)NC(=O)[C@H](CCCNC(=N)N)NC(=O)[C@H](Cc1c[nH]c2ccccc12)NC(=O)[C@H](Cc1c[nH]cn1)NC(=O)[C@H](Cc1c[nH]cn1)NC(=O)[C@@H](N)CCCNC(=N)N)C(=O)NCC(=O)N[C@@H](Cc1ccccc1)C(=O)N[C@@H](CCCNC(=N)N)C(=O)N[C@@H](C)C(=O)N[C@H](C(=O)N[C@@H](CCCNC(=N)N)C(=O)N[C@H](C(=O)N[C@H](C(=O)N[C@H](C(=O)NCC(=O)N[C@@H](CCCCN)C(N)=O)[C@@H](C)CC)C(C)C)[C@@H](C)O)C(C)C [T2R1] (H-RHHWRRYARIGFRAVRTVIGK-NH2) | 3 µM | 25 µM | – | 4 µM (≈ 10.5 µg/mL) | 8 µM (≈ 21.1 µg/mL) | 2 to 4 µM | 2 µM (≈ 5.27 µg/mL) | 1 µM (≈ 2.64 µg/mL) | 4 µM (≈ 10.5 µg/mL) | 2 µM (≈ 5.27 µg/mL) | 1 µM (≈ 2.64 µg/mL) | 0.5 µM (≈ 1.32 µg/mL) | 8 µM (≈ 21.1 µg/mL) | 4 µM (≈ 10.5 µg/mL) | 80 µM | 30 | 8 µM | 5 | 10 | 1.25 | PEa(20) = SI/MIC(aureus) ([5]; ATCC 29213, 18 h): 100 µM⁻¹; HC50 * (extrapolated) (human erythrocytes; extrapolated, all concentrations tested lysed less than 50% of cells): 7000 * µM
CC[C@H](C)[C@H](NC(=O)[C@H](CCCNC(=N)N)NC(=O)[C@H](C)NC(=O)[C@H](Cc1ccc(O)cc1)NC(=O)[C@H](CCCNC(=N)N)NC(=O)[C@H](CCCNC(=N)N)NC(=O)[C@H](Cc1c[nH]c2ccccc12)NC(=O)[C@H](Cc1c[nH]cn1)NC(=O)[C@@H](N)Cc1c[nH]cn1)C(=O)NCC(=O)N[C@@H](Cc1ccccc1)C(=O)N[C@@H](CCCNC(=N)N)C(=O)N[C@@H](C)C(=O)N[C@H](C(=O)N[C@@H](CCCNC(=N)N)C(=O)N[C@H](C(=O)N[C@H](C(=O)N[C@H](C(=O)NCC(=O)N[C@@H](CCCCN)C(N)=O)[C@@H](C)CC)C(C)C)[C@@H](C)O)C(C)C [T2] (H-HHWRRYARIGFRAVRTVIGK-NH2) | 1.4 µM | 3 µM | 28 µM | 8 µM (≈ 19.8 µg/mL) | 32 µM (≈ 79.3 µg/mL) | 8 µM (≈ 19.8 µg/mL) | 1 µM (≈ 2.48 µg/mL) | 0.5 to 1 µM | >32 µM | 4 µM (≈ 9.92 µg/mL) | 4 µM (≈ 9.92 µg/mL) | 1 µM (≈ 2.48 µg/mL) | 8 µM (≈ 19.8 µg/mL) | 4 µM (≈ 9.92 µg/mL) | 35 µM | 8.4 | 10 µM | 1 | 3.5 | 0.35 | PEa(20) = SI/MIC(aureus) ([5]; ATCC 29213, 18 h): 3 µM⁻¹
